Like-named read-outs stand apart in the source and are kept apart here.
Key:
Caki-1 = assay: Cell proliferation IC50 (Cell Titer Glo); format: cell-based; details: Homo sapiens, read-out: IC50 cell proliferation
Experimental: (§1) IC50 Cell proliferation measurements. Cell proliferation was assessed in the 41 tumor cell lines set forth in Table 2 after 4 days of continuous exposure to either the ERK1/2 inhibitor, compound a or the MEK inhibitor compound b (PD0325901) using Promega Cell Titer Glo reagent (Promega Corp, Madison, Wis.). Promega's CellTiter-Glo™ Luminescent Cell Viability Assay is a sensitive method for assaying cell proliferation using a stable form of luciferase to measure ATP as an indicator of viable cells. This reagent allows a homogeneous method of determining cell number by quantitation of ATP. The luciferase luminescent signal produced is proportional to the number of viable cells present in culture.
(§2) A 1000× compound dose response curve, containing 8 dilutions of each compound, was prepared on a 96-well plate. Compounds were diluted in 100% DMSO to the following (1000×) concentrations: compound b: 1000 μM, 333 μM, 111 μM, 37 μM, 12 μM, 4.1 μM, 1.4 μM and 0.5 μM; compound a: 3000 μM, 1000 μM, 333 μM, 111 μM, 37 μM, 12 μM, 4.1 μM and 1.4 μM. This compound source plate was sealed and kept frozen between uses.
(§3) Cells were grown in RPMI 1640 medium supplemented with 10% Fetal Bovine Serum, 2 mM Glutamine and non-essential amino acids or DMEM/F12 Media containing the same supplements. On day zero, cells were trypsinized, counted and plated into wells of a 96-well Wallac TC Isoplate (Perkin-Elmer Wallac, Gaithersburg, Md.) at a density of 1500-2000 cells per well in 50 μl of complete media. An additional 6-8 replicate well of the cells at the same density were plated on a separate Wallac TC Isoplate. This plate was developed on day 1 to determine the cell-growth baseline.
(§4) On day 1 of treatment, compound was diluted to 2× in media and immediately added to the cells as follows: one ml of media was added to each well of a deep-well 96-well plate and 2 μl of 1000× compound was added with mixing to make 2× compound in media. 50 μl of the media containing 2× compound was added to the cell plates in duplicate points so the final concentrations for each well were as outlined in Table 1. The plates were then returned to a 37° C. incubator and left undisturbed for 4 days. The day 1 (baseline) plates were developed by first adding 50 μl media (without compound) to bring the volume in each well to 100 μl, then adding 100 μl of Cell Titer Glo reagent (as below).
(§5) After four days of treatment, the plates were developed with Cell Titer Glo (CTG) reagent (Promega Corp.; Madison, Wis.). Reagent was reconstituted as described in the product insert. 100 μl of reagent was added to all treatment and control wells and the plates were gently shaken for 5 minutes then incubated an additional 5 minutes before reading in an Analyst AD (Molecular Devices Corporation; Sunnyvale, Calif.) using the Luminescence settings.
(§6) Data was analyzed in Excel using XLfit 4.2, fit model #205 (Dose Response One Site)

Hs695T = assay: Cell proliferation IC50 (Cell Titer Glo); format: cell-based; details: Homo sapiens, Hs 695T, 96 h, read-out: IC50 cell proliferation
Experimental: as §1, §2, §3, §4, §5, §6

KG-1 = assay: Cell proliferation IC50 (Cell Titer Glo); format: cell-based; details: Homo sapiens, read-out: IC50 cell proliferation
Experimental: as §1, §2, §3, §4, §5, §6

RPMI-7951 = assay: Cell proliferation IC50 (Cell Titer Glo); format: cell-based; details: Homo sapiens, read-out: IC50 cell proliferation
Experimental: as §1, §2, §3, §4, §5, §6

SK-Mel-1 = assay: Cell proliferation IC50 (Cell Titer Glo); format: cell-based; details: Homo sapiens, read-out: IC50 cell proliferation
Experimental: as §1, §2, §3, §4, §5, §6

SK-Mel-31 = assay: Cell proliferation IC50 (Cell Titer Glo); format: cell-based; details: Homo sapiens, 96 h, read-out: IC50 cell proliferation
Experimental: as §1, §2, §3, §4, §5, §6

WM-115 = assay: Cell proliferation IC50 (Cell Titer Glo); format: cell-based, human; details: 4 days continuous exposure
Experimental: as §1, §2, §3, §4, §5, §6

WM-266-4 = assay: Cell proliferation IC50 (Cell Titer Glo); format: cell-based, human; details: 4 days continuous exposure
Experimental: as §1, §2, §3, §4, §5, §6

[1] = test system: Cell lines with either the heterozygote V600E BRAF mutation or wild type BRAF genotype; assay: Cell proliferation IC50 (Cell Titer Glo), summary by genotype; format: cell-based; details: Homo sapiens, read-out: IC50 cell proliferation
Experimental: as §1, §2, §3
as §4, with “The day 1 (baseline) plates were developed by first adding 50 μl media (without compound) to bring the volume in each well to 100 μl, then adding 100 μl of Cell Titer Glo reagent (as below).” left out
as §5, with “Reagent was reconstituted as described in the product insert.” left out
as §6

[2] = test system: V600E BRAF homozygous genotype cell lines; assay: as above; format: cell-based; details: Homo sapiens, read-out: IC50 cell proliferation
Experimental: as §1, §2, §3
as §4, with “The day 1 (baseline) plates were developed by first adding 50 μl media (without compound) to bring the volume in each well to 100 μl, then adding 100 μl of Cell Titer Glo reagent (as below).” left out
as §5, with “Reagent was reconstituted as described in the product insert.” left out
as §6

Work on O=C(NOC[C@H](O)CO)c1ccc(F)c(F)c1Nc1ccc(I)cc1F [cpd. b, PD0325901] yielded an IC50 (Caki-1; CAKI-1, 96 h) of 180 nM, an IC50 (Hs695T) of 29 nM and an IC50 (KG-1; KG-1, 96 h) of 40 nM. The IC50 (RPMI-7951; RPMI-7951, 96 h) was 69 nM, the IC50 (SK-Mel-1; SK-MEL-1, 96 h) was 3 nM and the IC50 (SK-Mel-31) was 18 nM. For the same molecule, the IC50 (WM-115; Homo sapiens, WM-115, 96 h, read-out: IC50 cell proliferation, WM-115, Melanoma, BRAF V600D Heterozygous) was < 10 nM, the IC50 (WM-115; read-out: IC50 cell proliferation, WM-115, Melanoma, BRAF V600D Heterozygous) was 10 nM and the IC50 (WM-266-4; Homo sapiens, WM 266-4, 96 h, read-out: IC50 cell proliferation, WM-266-4, Melanoma, BRAF V600D Heterozygous) was < 10 nM. For the same molecule, the IC50 (WM-266-4; read-out: IC50 cell proliferation, WM-266-4, Melanoma, BRAF V600D Heterozygous) was 10 nM, the IC50 [1] was > 10 nM and the IC50 [2] was ≤ 10 nM.
In the case of O=C(Nc1ccc2[nH]nc(-c3ccncc3)c2c1)C1CCN(CC(=O)N2CCN(c3ccc(-c4ncccn4)cc3)CC2)C1 (stereo not shown) [cpd. a], the IC50 (Caki-1; 96 h, Caki-1, Renal, BRAF V600V Wild type, 4 days continuous exposure) is reported as 450 nM, the IC50 (Hs695T; Hs695T, Melanoma, BRAF V600E Heterozygous, 4 days continuous exposure) is reported as 165 nM and the IC50 (KG-1; 96 h, KG-1, Leukemia, BRAF V600V Wild type, 4 days continuous exposure) is reported as 900 nM. For the same molecule, the IC50 (RPMI-7951; 96 h, RPMI-7951, Melanoma, BRAF V600E Heterozygous, 4 days continuous exposure) was 344 nM, the IC50 (SK-Mel-1; 96 h, SK-Mel-1, Melanoma, BRAF V600E Heterozygous, 4 days continuous exposure) was 37 nM and the IC50 (SK-Mel-31; SK-Mel-31, Melanoma, BRAF V600E Heterozygous, 4 days continuous exposure) was 150 nM. The IC50 (WM-115; Homo sapiens, WM-115, 96 h, WM-115, Melanoma, BRAF V600D Heterozygous, read-out: IC50 cell proliferation) was < 100 nM, the IC50 (WM-115; WM-115, Melanoma, BRAF V600D Heterozygous, read-out: IC50 cell proliferation) was 60 nM and the IC50 ([1]; 25 of the 32 cell lines tested (heterozygote V600E or wild type BRAF)) was > 100 nM. For the same molecule, the IC50 ([2]; nine of the nine V600E BRAF homozygous genotype cell lines tested) was < 100 nM.
